Data on eight molecules can be found in PubChem BioAssay (NCI).

Among the test systems are ACHN renal; HCT-15 colon; HT29 colon; M14 melanoma; MCF7 breast; MDA-MB-435; NCI-H226 lung; NCI-H23 lung; NCI/ADR-RES ovarian; OVCAR-3 ovarian; OVCAR-4 ovarian; PC-3 prostate; SF-268 CNS; SF-295 CNS; SF-539 CNS; SNB-19 CNS.
Holding throughout (assay): growth of human tumour cells (NCI), 48 h

SMILES strings stand for the structures.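 Tested at 5 concentrations; 48 h exposure; 96-well plates; endpoints linearly interpolated, else capped at highest concentration. TGI: total growth inhibition.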

`COc1ccc(C2c3cc4c(cc3OC(N3CCOCC3)C2C)OCO4)cc1OC` (stereo not drawn): the TGI is above 100 µM in the experiment on ACHN renal; above 100 µM with HCT-15 colon; 46.8 µM with HT29 colon; 52.3 µM in the experiment with M14 melanoma; above 96 µM in the experiment with MCF7 breast; 6.25 µM with MDA-MB-435. In addition, the TGI was 31.7 µM in the experiment with NCI-H226 lung; above 89.6 µM in the experiment on NCI-H23 lung; 25.7 µM in the experiment with NCI/ADR-RES ovarian; 13.2 µM in the experiment with OVCAR-3 ovarian; above 100 µM in the experiment with OVCAR-4 ovarian; above 100 µM in the experiment on PC-3 prostate. Moreover, the TGI is above 100 µM in the experiment with SF-268 CNS, 32.8 µM with SF-295 CNS, 22.1 µM in the experiment on SF-539 CNS and 77.6 µM in the experiment on SNB-19 CNS.
On to `O=[N+]([O-])C1=Cc2c(O)ccc(O)c2C2OC=CC12` (stereo not drawn), for which the TGI in the experiment on ACHN renal turned out to be 29.1 µM; in the experiment on HCT-15 colon, 37 µM; in the experiment with HT29 colon, 43.8 µM; with M14 melanoma, 34.5 µM; in the experiment with MCF7 breast, 30.9 µM; in the experiment with MDA-MB-435, 6.1 µM. Besides, the TGI is above 73.8 µM with NCI-H226 lung; 32.4 µM with NCI-H23 lung; 55.9 µM in the experiment with NCI/ADR-RES ovarian; 21.3 µM in the experiment with OVCAR-3 ovarian; 30.2 µM in the experiment on OVCAR-4 ovarian; 31 µM with PC-3 prostate. The TGI in the experiment with SF-268 CNS stood at 35.5 µM; in the experiment on SF-295 CNS, 32.2 µM; in the experiment with SF-539 CNS, 47.5 µM; with SNB-19 CNS it was 52.2 µM.
Take `Cc1cccc(C)c1NC(=S)N/C=C(\C#N)C(N)=O`: the TGI in the experiment with ACHN renal, in the experiment with HCT-15 colon, in the experiment with HT29 colon, in the experiment on M14 melanoma, in the experiment on MCF7 breast and with MDA-MB-435 was above 100 µM in each case. In addition, the TGI with NCI-H226 lung, in the experiment on NCI-H23 lung, with NCI/ADR-RES ovarian, in the experiment on OVCAR-3 ovarian, in the experiment with OVCAR-4 ovarian and with PC-3 prostate was above 100 µM in each case. In addition, the TGI in the experiment with SF-268 CNS, in the experiment on SF-295 CNS, with SF-539 CNS and in the experiment with SNB-19 CNS was above 100 µM each time.
In the case of `COP(=O)(OC)[C@@](O)(c1ccccc1)[C@@H](O)[C@H](O)c1ccccc1`, the TGI in the experiment with ACHN renal was above 100 µM; in the experiment on HCT-15 colon, above 100 µM; with HT29 colon, above 100 µM; in the experiment on M14 melanoma, above 100 µM; in the experiment on MCF7 breast, 63.3 µM; with MDA-MB-435, above 100 µM. In addition, the TGI in the experiment on NCI-H226 lung, with NCI-H23 lung, in the experiment with NCI/ADR-RES ovarian, with OVCAR-3 ovarian, in the experiment on OVCAR-4 ovarian and in the experiment with PC-3 prostate was above 100 µM throughout. Further, the TGI with SF-268 CNS, in the experiment on SF-295 CNS, with SF-539 CNS and with SNB-19 CNS was above 100 µM each time.
Turning to `CCCCOc1ccc(/C=C/C2=[N+](CCO)CCO2)cc1`, the TGI in the experiment on ACHN renal was above 100 µM; in the experiment with HCT-15 colon, above 100 µM; in the experiment with HT29 colon it was 31.4 µM; with M14 melanoma, above 100 µM; in the experiment on MCF7 breast it was above 100 µM; with MDA-MB-435, above 100 µM. Besides, the TGI with NCI-H226 lung is 70 µM; in the experiment with NCI-H23 lung, above 100 µM; in the experiment with NCI/ADR-RES ovarian it was above 100 µM; in the experiment with OVCAR-3 ovarian it was above 100 µM; with OVCAR-4 ovarian it was above 100 µM; in the experiment with PC-3 prostate, above 100 µM. Also, the TGI in the experiment with SF-268 CNS was above 100 µM; in the experiment on SF-295 CNS it was above 100 µM; with SF-539 CNS, 96.2 µM; with SNB-19 CNS it was above 100 µM.
As for `C[C@]12CC[C@H]3[C@@H](CC=C4C[C@@H](N5CCCC5)CC[C@@]43C)[C@@H]1C/C(=C\c1ccc([N+](=O)[O-])cc1)[C@@H]2O`, the TGI in the experiment with ACHN renal is 29.3 µM; in the experiment on HCT-15 colon it was 28.4 µM; in the experiment on HT29 colon, 27.4 µM; with M14 melanoma, 30.2 µM; in the experiment on MCF7 breast, 68.9 µM; in the experiment on MDA-MB-435, 31 µM. Further, the TGI in the experiment with NCI-H226 lung came to 36.2 µM; in the experiment with NCI-H23 lung it was 37.4 µM; with NCI/ADR-RES ovarian, 43.4 µM; with OVCAR-3 ovarian, 31.5 µM; with OVCAR-4 ovarian it was 25.4 µM; in the experiment on PC-3 prostate, 88 µM. Further, the TGI is 40.1 µM in the experiment on SF-268 CNS, 96.7 µM with SF-295 CNS, 32.4 µM in the experiment with SF-539 CNS and 59.2 µM in the experiment on SNB-19 CNS.
On to `Cc1cccc(-c2cc(=O)c3cccnc3[nH]2)c1`, for which the TGI in the experiment with ACHN renal was above 100 µM; in the experiment with HCT-15 colon, above 100 µM; in the experiment with HT29 colon, 2.93 µM; with M14 melanoma, above 100 µM; with MCF7 breast, above 100 µM; in the experiment on MDA-MB-435, 0.191 µM. Also, the TGI with NCI-H226 lung, in the experiment on NCI-H23 lung, in the experiment with NCI/ADR-RES ovarian, in the experiment on OVCAR-3 ovarian, with OVCAR-4 ovarian and in the experiment with PC-3 prostate was above 100 µM in each case. In addition, the TGI with SF-268 CNS, in the experiment with SF-295 CNS, in the experiment on SF-539 CNS and in the experiment with SNB-19 CNS was above 100 µM in each case.
With `COc1cc(O)c2c(=O)c3cccc(C)c3[nH]c2c1`, the TGI in the experiment on ACHN renal, with HCT-15 colon, in the experiment with HT29 colon, in the experiment with M14 melanoma, with MCF7 breast and in the experiment with MDA-MB-435 was above 10 µM throughout. The TGI with NCI-H226 lung, in the experiment with NCI-H23 lung, in the experiment on NCI/ADR-RES ovarian, in the experiment on OVCAR-3 ovarian, with OVCAR-4 ovarian and with PC-3 prostate was above 10 µM throughout. The TGI with SF-268 CNS, in the experiment on SF-295 CNS, in the experiment on SF-539 CNS and in the experiment with SNB-19 CNS was above 10 µM throughout.
